In brackets after ≈: the same amount, converted by molar mass. Several values for one entry are separate records, joined by “and”; a condition that tells them apart may be missing. Equal entries are not always repeated. Where two headings read alike, the source gives them in different places.

The source of these data is publication PMC11054433, “Nature-Inspired 1-Phenylpyrrolo[2,1-a]isoquinoline Scaffold for Novel Antiproliferative Agents Circumventing P-Glycoprotein-Dependent Multidrug Resistance” (Pharmaceuticals, 2024).

For data set [1], the system named is RD (rhabdomyosarcoma) cells. Briefly: MTT antiproliferative (cytotoxicity) assay, RD cells. In kind it is cell-based, Human. The settings on record: Homo sapiens, Rhabdomyosarcoma cell, 72 h, mean (SD), triplicate, n.a. = not active at 100 μM, >100 = less than 60% inhibition at 100 μM. Here is the method:
(§1) The newly synthesized 1-Ph-DHPIQs, along with the previously reported derivatives 4a, 4c, 6a and 6c, with camptothecin and doxorubicin as positive controls, were tested at the maximum concentration of 100 μM for their antiproliferative activity, using an MTT assay on RD, HCT116, HeLa and A549 cancer cell lines. Compounds showing more than 50% inhibition were tested at lower scalar concentrations, and IC50 values were calculated by interpolation of the dose-response curves (Table 1). […]
(§2) The antiproliferative activity of the newly synthesized compounds, along with some previously reported analogs, and camptothecin and doxorubicin as positive controls was determined by the MTT (3-(4,5-dimethylthiazol-2-yl)-2,5-diphenyltetrazolium bromide) assay. The cells were seeded at a concentration of 1 × 10 ^4 cells/200 μL in a 96-well plate and cultured at 37 °C in a humidified atmosphere with 5% CO2. After 24 h of incubation, scalar concentrations of each test compound (100 to 1.56 μmol·L^−1) were added to the cancer cell culture and the cells were then cultured under the same conditions for 72 hr. Each concentration of the test compound was assayed in triplicate. […] Wells with the 0.1% v/v DMSO were used as controls. After incubation, 20 μL of MTT (5 mg·mL^−1) was added to each well and the plates were incubated for a further 2 h. Next, media were removed from the plates, and 100 μL of DMSO was added to each well to dissolve the formed formazan crystals. Using a flatbed analyzer (Victor^3, PerkinElmer, Waltham, MA, USA), the optical density was determined at 530 nm, minus the measured background absorbance at 620 nm. The concentration value, which causes 50% inhibition of cell population growth (IC50), was determined from the dose-dependent curves using the OriginPro 9.0 software.

For the next data set, the target named is P-glycoprotein (P-gp) (Homo sapiens, UniProt P08183). Briefly: Calcein-AM transport inhibition in MDCK-MDR1 cells overexpressing P-gp. The settings on record: for IC50: calcein-AM, mean (SD), at least two independent experiments in triplicate; for P-gp/MRP1 selectivity (toward P-gp): ratio of MRP1 and P-gp inhibition potency.
Data set [2] deals with HCT116 (colon cancer) cells. Briefly: MTT antiproliferative (cytotoxicity) assay, HCT116 cells. The settings on record: Homo sapiens, HCT-116, 72 h, mean (SD), triplicate, n.a. = not active at 100 μM, >100 = less than 60% inhibition at 100 μM. Format: cell-based, Human. Here is the method:
as §1, §2

The test system of data set [3] is A549 (lung adenocarcinoma) cells. As to the kind of experiment: MTT antiproliferative (cytotoxicity) assay, A549 cells. The settings on record: Homo sapiens, A549, 72 h, mean (SD), triplicate, n.a. = not active at 100 μM, >100 = less than 60% inhibition at 100 μM. In kind it is cell-based, Human.
Protocol: The antiproliferative activity of the newly synthesized compounds, along with some previously reported analogs, and camptothecin and doxorubicin as positive controls was determined by the MTT (3-(4,5-dimethylthiazol-2-yl)-2,5-diphenyltetrazolium bromide) assay. […] Each concentration of the test compound was assayed in triplicate. […] Wells with the 0.1% v/v DMSO were used as controls. After incubation, 20 μL of MTT (5 mg·mL^−1) was added to each well and the plates were incubated for a further 2 h. Next, media were removed from the plates, and 100 μL of DMSO was added to each well to dissolve the formed formazan crystals. Using a flatbed analyzer (Victor^3, PerkinElmer, Waltham, MA, USA), the optical density was determined at 530 nm, minus the measured background absorbance at 620 nm.
In data set [4] the target is human serum albumin (HSA) (Homo sapiens, UniProt P02768). As to the kind of experiment: Binding affinity to immobilized HSA by surface plasmon resonance (SPR). Background: Surface plasmon resonance follows binding to a sensor surface in real time, without labels.
Protocol: By plotting the response at equilibrium, the dissociation constant (KD) value was determined for each test compound.
Fatty acid-free HSA (A3782 from Merck, KGaA Sigma-Aldrich, Darmstadt, Germany) was applied to functionalize the surface of a COOH V sensor chip (Pall FortèBio, Fremont Boulevard, CA, USA), by using amine coupling (EDC/NHS). HSA aqueous stock solution was diluted at the final concentration of 50 μg·mL^−1 in 10 mM sodium acetate buffer (pH 5.0), and immobilization in peripheral flow cells 1 and 3 (unmodified dextran surface in middle flow cell 2 used as a reference) at a final apparent level of about 5000 RU was achieved by applying the following protocol: injection of EDC/NHS (freshly mixed 0.4 M EDC and 0.1 M NHS) 1:1 v/v at a flow of 25 μL·min^−1 for 4 min; injection of HSA solution at a flow of 25 μL·min^−1 for 8 min; capping on unreacted activated carboxyl groups by injection of 1 M ethanolamine solution (pH 9) at a flow of 25 μL·min^−1 for 8 min. The functionalized surface was then treated with repeated injection of 4 M NaCl, as a regenerating reagent, and conditioned overnight prior to use with pH 7.4 PBS (10 mM NaH2PO4 and 150 mM NaCl) as a running buffer. Each cycle (without the need of regeneration) for binding assay to HSA was carried out in PBS/4% v/v DMSO and consisted of a run buffer injection (60 s), injection of analyte single concentration for 120 s (ranging from 1 to 200 μM) at a flow 20 μL·min^−1, and a dissociation phase for 150 s (flow 20 μL·min^−1). Each measurement was performed at least in triplicate and analyzed by using QDAT software, vers 2.2.0.7 (non-linear regression analysis of 1:1 stoichiometric reversible binding model), and double referencing.
The nature of data set [5]: Lipophilicity by RP-HPLC (polycratic capacity factor). Format: physicochemical. The conditions noted are these: capacity factor extrapolated to 100% aqueous mobile phase, aqueous component pH 4.7. Here is the method:
To quantitate the effect of hydrophobicity on the biological activity of the examined compounds, a relative lipophilicity scale was determined by RP-HPLC [20]. The polycratic capacity factor (log k′w) for each compound in Table 2 was experimentally determined (details in the experimental section) and compared with 1-octanol–water partition coefficient calculated (Clog P) with ACDLabs software (release 10.0; Advanced Chemistry Development, Inc., Toronto, ON, Canada). Log k′w values are quite well correlated with Clog Ps for the whole series (r^2 = 0.791). However, omitting from the regression the two Mannich bases 8b and 8c, which, due to their basicity (pKas about 6.9, estimated by ACDLabs software), should be predominantly in the protonated forms at pH 4.7 (i.e., the pH of the aqueous component of the mobile phase in RP-HPLC), the correlation slightly improves (r^2 = 0.859), providing a linear equation with a slope equal to +0.8 and an intercept of about −0.1.
The lipophilicity parameters were determined by an RP-HPLC technique. Methanol solution of DHPIQ derivatives (1 mg/mL) were analyzed by an Agilent 1260 infinite HPLC system (Agilent Technologies, Milan, Italy) equipped with a diode array detector (DAD), and a Phenomenex, Kinetex 5 μ, C18, 100 Å (150 × 4.6 mm), and eluted with different percentage of mobile phase composition (0.05 increments of MeOH volume fractions in 20 mM ammonium formate buffer at pH 4.7 or water 0.1% v/v TFA, with φ ranging between 0.85 and 0.30). The chromatographic measurements were carried out at 25 ± 1 °C at a flow rate of 1 mL·min^−1 and at 265, 290, 320 nm wavelengths. The log of capacity factors (log k′ = log (tR − t0)/t0) of each compound at different mobile phase compositions was calculated; tR represents the retention time of the solute and t0 is the column dead time, measured as the elution time of a KNO3 solution in MeOH. For each compound, the log k′ values increased linearly with decreasing MeOH volume fraction. The logarithms of the capacity factor extrapolated to 100% aqueous mobile phase (log k′w) were calculated from the linear regressions on at least five data points (r^2 > 0.9984).

The nature of data set [6]: Kinetic solubility in PBS by RP-HPLC. The conditions noted are these: phosphate buffered saline, 25 °C, aqueous buffer, kinetic from dmso stock; PBS (50 mM, pH 7.4, 0.15 M KCl) at 25 ± 1 °C; read-out: S (solubility). Format: physicochemical. Here is the method:
Sample solution at 200 μM in PBS (50 mM, pH 7.4, KCl 0.15 M) from a 10 mM stock solution in DMSO was incubated at room temperature (25 ± 1 °C) for 2 h, following shaking of the suspension on an orbital shaker at 250 rpm, and then separated by […]. Immediately after the filtration step, 100 µL of filtrate was transferred into 100 µL of 1:1 (v/v) mixture of DMSO and PBS (50 mM, pH 7.4, KCl 0.15 M), to avoid precipitation from the saturated solution and analyzed by HPLC. The peak area was plotted against a calibration curve of the tested compound in MeOH [21]. Analytical conditions were as follows. Mobile Phase: MeOH/ammonium formate 20 mM pH 4.7 (70:30, 75:25); MeOH 0.1% TFA/H2O 0.1% TFA (70:30, 60:40); stationary phase: Phenomenex, Kinetex 5 μ, C18, 100 Å (150 × 4.6 mm); flux: 1 mL/min; injection: 10 μL, 265, 290, 320 nm wavelength. HPLC analyses were performed on an Agilent HPLC 1260 Infinity Series Integrated System (Agilent Technologies, Milan, Italy).

Data set [7] concerns the target multidrug-resistance-associated protein-1 (MRP1) (Homo sapiens, UniProt P33527). As to the kind of experiment: Calcein-AM transport inhibition in MDCK-MRP1 cells overexpressing MRP1.
Protocol: (§3) The P-gp inhibitory potency of eight DHPIQs was evaluated by measuring the transport inhibition of calcein-AM, a profluorescent P-gp substrate, in the MDCK-MDR1 cell line overexpressing P-gp. Moreover, to evaluate the MRP1 inhibitor activity, the same compounds were screened in MDCK-MRP1 cells overexpressing MRP1.
(§4) According to previously described assays [9], MDCK-MDR1 and MDCK-MRP1 cell lines (50,000 cells per well) were seeded into a black CulturePlate 96-well plate with 100 μL medium and allowed to become confluent overnight. […] Saline buffer (100 μL) was added to each well, and the plate was read by a PerkinElmer Victor3 spectrofluorimeter at excitation and emission wavelengths of 485 nm and 535 nm, respectively. In these experimental conditions, calcein cell accumulation in the absence and in the presence of the test compound was evaluated, and the fluorescence basal level was estimated by untreated cells. In the treated wells, the increase of fluorescence with respect to basal level was measured. IC50 values were determined by interpolating the curve of fluorescence increase percentage versus log [conc.].
Data set [8] deals with HeLa (adenocarcinoma of the cervix uterus) cells. As to the kind of experiment: MTT antiproliferative (cytotoxicity) assay, HeLa cells. The settings on record: Homo sapiens, HeLa, 72 h, mean (SD), triplicate, n.a. = not active at 100 μM, >100 = less than 60% inhibition at 100 μM. In kind it is cell-based, Human. Here is the method:
as §1, §2

Data set [9] in a line: Hydrolytic stability monitored by RP-HPLC. Format: physicochemical. The settings on record: 0.15 M KCl. An excerpt:
In particular, the transformation of the DHPIQ-2-aldehyde via Mannich reaction (8b,c) opens the road to future developments of new water-soluble antiproliferative DHPIQ derivatives endowed with the ability to inhibit P-gp and reverse MDR.

Chain of human serum albumin (HSA) (P02768 25-609): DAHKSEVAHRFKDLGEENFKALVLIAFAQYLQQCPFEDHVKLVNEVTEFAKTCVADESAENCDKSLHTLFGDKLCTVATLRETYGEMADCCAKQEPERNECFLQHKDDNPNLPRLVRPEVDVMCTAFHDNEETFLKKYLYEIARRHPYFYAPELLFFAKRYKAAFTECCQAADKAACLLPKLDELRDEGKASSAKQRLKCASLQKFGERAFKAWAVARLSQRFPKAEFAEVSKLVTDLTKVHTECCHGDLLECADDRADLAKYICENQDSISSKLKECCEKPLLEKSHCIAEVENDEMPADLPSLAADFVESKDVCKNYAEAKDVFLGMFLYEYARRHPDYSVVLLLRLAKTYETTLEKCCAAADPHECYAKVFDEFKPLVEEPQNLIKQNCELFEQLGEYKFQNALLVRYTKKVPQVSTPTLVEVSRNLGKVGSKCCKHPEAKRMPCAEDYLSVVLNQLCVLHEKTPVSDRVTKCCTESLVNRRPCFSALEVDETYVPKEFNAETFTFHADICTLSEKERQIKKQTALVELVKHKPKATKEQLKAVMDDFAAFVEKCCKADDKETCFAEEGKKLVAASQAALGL
Chain of multidrug-resistance-associated protein-1 (MRP1) (P33527 whole entry): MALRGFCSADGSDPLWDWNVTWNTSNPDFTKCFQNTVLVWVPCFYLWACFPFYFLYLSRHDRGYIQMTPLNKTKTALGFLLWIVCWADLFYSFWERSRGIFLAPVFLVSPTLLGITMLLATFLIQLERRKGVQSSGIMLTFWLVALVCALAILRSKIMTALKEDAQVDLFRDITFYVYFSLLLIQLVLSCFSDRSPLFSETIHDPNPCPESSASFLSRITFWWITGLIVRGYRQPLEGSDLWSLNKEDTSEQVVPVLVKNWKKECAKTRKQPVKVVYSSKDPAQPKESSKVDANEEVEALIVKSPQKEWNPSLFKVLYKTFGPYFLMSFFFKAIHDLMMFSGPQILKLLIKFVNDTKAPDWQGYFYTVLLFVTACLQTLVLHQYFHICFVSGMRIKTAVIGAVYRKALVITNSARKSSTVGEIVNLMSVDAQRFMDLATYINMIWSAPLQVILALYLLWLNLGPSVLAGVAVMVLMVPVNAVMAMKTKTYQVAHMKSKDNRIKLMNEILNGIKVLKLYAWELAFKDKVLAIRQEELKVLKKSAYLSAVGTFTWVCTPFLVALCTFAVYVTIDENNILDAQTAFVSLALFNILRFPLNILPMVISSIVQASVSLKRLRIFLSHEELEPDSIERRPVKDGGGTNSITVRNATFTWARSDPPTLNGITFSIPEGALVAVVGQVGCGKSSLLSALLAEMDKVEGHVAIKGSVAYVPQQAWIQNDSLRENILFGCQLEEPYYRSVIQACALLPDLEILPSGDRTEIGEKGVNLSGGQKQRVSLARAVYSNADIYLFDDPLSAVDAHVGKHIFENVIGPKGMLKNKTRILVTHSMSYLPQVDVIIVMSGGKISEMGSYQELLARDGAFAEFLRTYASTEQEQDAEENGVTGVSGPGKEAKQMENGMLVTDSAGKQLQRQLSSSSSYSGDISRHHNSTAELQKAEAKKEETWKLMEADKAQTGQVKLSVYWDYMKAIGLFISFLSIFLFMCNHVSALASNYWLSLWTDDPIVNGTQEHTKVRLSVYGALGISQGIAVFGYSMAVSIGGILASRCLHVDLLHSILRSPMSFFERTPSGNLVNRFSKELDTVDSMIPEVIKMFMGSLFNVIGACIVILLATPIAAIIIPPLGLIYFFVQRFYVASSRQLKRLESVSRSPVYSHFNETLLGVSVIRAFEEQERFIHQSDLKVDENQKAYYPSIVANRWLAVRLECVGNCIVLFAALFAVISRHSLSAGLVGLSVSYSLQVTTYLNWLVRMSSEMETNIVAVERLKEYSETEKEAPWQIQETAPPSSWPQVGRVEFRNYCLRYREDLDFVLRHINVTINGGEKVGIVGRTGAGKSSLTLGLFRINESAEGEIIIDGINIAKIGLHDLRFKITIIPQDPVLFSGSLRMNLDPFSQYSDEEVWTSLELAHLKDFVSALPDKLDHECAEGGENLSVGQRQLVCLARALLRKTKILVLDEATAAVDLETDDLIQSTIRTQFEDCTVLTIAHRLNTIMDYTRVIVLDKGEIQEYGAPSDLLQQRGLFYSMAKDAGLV
Chain of P-glycoprotein (P-gp) (P08183 whole entry): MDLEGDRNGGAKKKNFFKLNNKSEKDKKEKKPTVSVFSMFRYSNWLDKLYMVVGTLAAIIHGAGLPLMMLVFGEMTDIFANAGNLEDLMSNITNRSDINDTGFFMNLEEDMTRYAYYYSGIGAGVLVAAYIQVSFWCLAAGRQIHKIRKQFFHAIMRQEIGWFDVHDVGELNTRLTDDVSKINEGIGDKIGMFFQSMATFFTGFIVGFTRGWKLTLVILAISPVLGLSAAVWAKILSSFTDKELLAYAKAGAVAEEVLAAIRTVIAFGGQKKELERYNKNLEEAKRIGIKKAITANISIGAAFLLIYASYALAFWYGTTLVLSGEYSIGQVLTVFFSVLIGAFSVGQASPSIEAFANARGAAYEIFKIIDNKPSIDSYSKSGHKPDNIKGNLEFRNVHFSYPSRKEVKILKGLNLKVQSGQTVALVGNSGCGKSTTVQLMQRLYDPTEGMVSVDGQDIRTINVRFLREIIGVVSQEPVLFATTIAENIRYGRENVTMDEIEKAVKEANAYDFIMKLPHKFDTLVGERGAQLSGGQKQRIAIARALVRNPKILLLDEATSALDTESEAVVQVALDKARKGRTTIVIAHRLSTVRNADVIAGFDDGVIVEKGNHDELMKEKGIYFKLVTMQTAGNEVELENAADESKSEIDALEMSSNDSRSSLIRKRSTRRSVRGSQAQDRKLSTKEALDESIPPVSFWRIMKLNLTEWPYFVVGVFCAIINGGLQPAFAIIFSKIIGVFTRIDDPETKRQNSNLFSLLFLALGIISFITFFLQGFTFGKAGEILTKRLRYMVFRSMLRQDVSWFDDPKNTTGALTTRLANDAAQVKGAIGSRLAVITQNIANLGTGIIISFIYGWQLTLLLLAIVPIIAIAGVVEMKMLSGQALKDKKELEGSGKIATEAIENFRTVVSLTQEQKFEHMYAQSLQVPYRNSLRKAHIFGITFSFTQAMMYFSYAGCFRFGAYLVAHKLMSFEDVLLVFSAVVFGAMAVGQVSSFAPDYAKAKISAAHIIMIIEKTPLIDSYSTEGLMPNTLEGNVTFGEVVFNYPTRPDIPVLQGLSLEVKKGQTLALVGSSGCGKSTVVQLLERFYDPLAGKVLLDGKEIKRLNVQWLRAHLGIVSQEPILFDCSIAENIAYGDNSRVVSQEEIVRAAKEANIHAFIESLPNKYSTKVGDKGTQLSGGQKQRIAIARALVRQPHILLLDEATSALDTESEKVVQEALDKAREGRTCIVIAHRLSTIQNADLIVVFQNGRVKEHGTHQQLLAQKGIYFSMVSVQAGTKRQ
Protocol for P-glycoprotein (P-gp): as §3, §4

Broadly, the IC50 is the midpoint of a concentration-inhibition curve. In general, melting point refers to the temperature of the solid-liquid transition. The molecule `CCOc1ccc(-c2c(C#N)c(-c3ccccc3)n3c2-c2cc(OCC)c(OCC)cc2CC3)cc1OCC` [Compound 6e, 1-(3,4-Diethoxyphenyl)-8,9-diethoxy-3-phenyl-5,6-dihydropyrrolo [2,1-a]isoquinoline-2-carbonitrile] showed a melting point of 271 to 273 °C. This molecule also had an IC50 in data set [1] greater than 100 µM.

The Kd is the equilibrium constant for the complex coming apart. In general, solubility refers to the concentration that dissolves in the medium under given conditions. As to `COc1cc2c(cc1OC)-c1c(-c3ccc(Cl)cc3)c(C#N)cn1CC2` [Compound 6a], the concentration for half-maximal inhibition (IC50) in data set [1] is greater than 100 µM; on P-glycoprotein (P-gp) (P-gp, IC50, MDCK-MDR1 cells), 5.89 µM; in data set [2], greater than 100 µM; in data set [3], greater than 100 µM; in data set [7], 16.6 µM; in [8], greater than 100 µM. The molecule also gave a Kd in data set [4] of 4.6 µM. In addition, the “Log k′w” value in data set [5] was 4.42. Moreover, the solubility at 2 h in [6] was determined as 1.42 µM (≈ 0.518 µg/mL).

For `CC[C@@]1(O)C(=O)OCc2c1cc1n(c2=O)Cc2cc3ccccc3nc2-1` [Camptothecin, reference compound], the IC50 in [1] was found to be 16 µM; in [2] it was 12.3 µM; in [3], 3.32 µM; in data set [8] it was 0.33 µM.

Take `COc1cc2c(cc1OC)CN(CCC=C1CCCc3c(OC)cccc31)CC2` [MC18, reference compound]: the IC50 at P-glycoprotein (P-gp) (read-out: P-gp, IC50, MDCK-MDR1 cells) is 1.2 µM.

`COc1cccc2c1C(=O)c1c(O)c3c(c(O)c1C2=O)C[C@@](O)(C(=O)CO)C[C@@H]3O[C@H]1C[C@H](N)[C@H](O)[C@H](C)O1` [Doxorubicin, reference compound]: the IC50 in data set [1] turned out to be 0.29 µM; in [2] it was 0.14 µM; in data set [3], 0.38 µM; in [8], 0.89 µM.

For `CCOc1ccc(-c2c(C(=O)O)cn3c2-c2cc(OCC)c(OCC)cc2CC3)cc1OCC` [Compound 5c, 1-(3,4-Diethoxyphenyl)-8,9-diethoxy-5,6-dihydropyrrolo[2,1-a]isoquinoline-2-carboxylic acid], the IC50 at P-glycoprotein (P-gp) (P-gp, IC50, MDCK-MDR1 cells) is < 0.5 µM and 0.35 µM; in data set [7], greater than 100 µM. In addition, the “P-gp/MRP1 selectivity (toward P-gp)” value on P-glycoprotein (P-gp) is reported as “more than two orders of magnitude”. Further, the affinity in [4], expressed as Kd, was 5.2 µM. Besides, the solubility at 2 h in [6] was determined as 14.6 µM (≈ 6.8 µg/mL).

On to `CCOc1ccc(-c2c(C#N)cn3c2-c2cc(OCC)c(OCC)cc2CC3)cc1OCC` [Compound 6c], for which the half-inhibitory concentration (IC50) in data set [1] is greater than 100 µM; at P-glycoprotein (P-gp) (P-gp, IC50, MDCK-MDR1 cells) it was < 0.5 µM and 0.39 µM; in data set [2] it was greater than 100 µM; in data set [3] it was greater than 100 µM; in data set [7], greater than 100 µM; in [8] it was greater than 100 µM. In addition, at P-glycoprotein (P-gp), the “P-gp/MRP1 selectivity (toward P-gp)” value is reported as “more than two orders of magnitude”. This molecule also displayed a Kd in data set [4] of 1.8 µM. Besides, the “Log k′w” value in data set [5] is recorded as 5.09. Besides, the solubility at 2 h in data set [6] was determined as 1.06 µM (≈ 0.473 µg/mL).

In the case of `CCOC(=O)c1cn2c(c1-c1ccc(OCC)c(OCC)c1)-c1cc(OCC)c(OCC)cc1CC2` [Compound 7c, Ethyl 1-(3,4-Diethoxyphenyl)-8,9-diethoxy-5,6-dihydro pyrrolo[2,1-a]isoquinoline-2-carboxylate], the IC50 on P-glycoprotein (P-gp) (P-gp, IC50, MDCK-MDR1 cells) was < 0.5 µM and 0.32 µM; in [7], 3.23 µM. The molecule also yielded a Kd in data set [4] of 12.1 µM. The “Log k′w” value in [5] is reported as 5.49. Besides, the solubility at 2 h in [6] was 41.7 µM (≈ 20.6 µg/mL). Besides, the “Hydrolytic stability at pH 2” value in [9] (0.01 M HClaq, pH 2, 25 °C) is “stable over 4 h”. Moreover, the “Hydrolytic stability at pH 7.4” value in data set [9] (50 mM PBS, pH 7.4, 25 °C) is reported as “stable over 4 h”.

As to `COc1cc2c(cc1OC)-c1c(-c3ccc(Cl)cc3)c(C(=O)O)cn1CC2` [Compound 5a, 1-(4-Chlorophenyl)-8,9-dimethoxy-5,6-dihydropyrrolo[2,1-a]isoquinoline-2-carboxylic acid], the melting point lay in the range of 210 to 215 °C. The IC50 in [1] is greater than 100 µM. Moreover, the IC50 in data set [2] was greater than 100 µM. In data set [3], the IC50 was greater than 100 µM. The IC50 in data set [8] was greater than 100 µM.

For `COc1ccc(-c2c(C=O)cn3c2-c2cc(OC)c(OC)cc2CC3)cc1` [Compound 4b], the IC50 in [1] is 95.2 µM; on P-glycoprotein (P-gp) (P-gp, IC50, MDCK-MDR1 cells), 4.48 µM; in [2], greater than 100 µM; in [3] it was greater than 100 µM; in [7], 6.42 µM; in data set [8], greater than 100 µM. For the same molecule, in data set [4], the Kd was 1.95 µM. For the same molecule, the “Log k′w” value in [5] is given as 3.39. Besides, in data set [6], the solubility at 2 h stood at 19.8 µM (≈ 7.2 µg/mL).

Regarding `CCOc1ccc(-c2c(C#N)c(C)n3c2-c2cc(OCC)c(OCC)cc2CC3)cc1OCC` [Compound 6d, 1-(3,4-Diethoxyphenyl)-8,9-diethoxy-3-methyl-5,6-dihydropyrrolo[2,1-a]isoquinoline-2-carbonitrile], the half-inhibitory concentration (IC50) in [1], in data set [2], in data set [3] and in data set [8] was greater than 100 µM each time.
